Experimental findings from patent publication US20240083897A1, “GCN2 MODULATING COMPOUNDS AND USES THEREOF” (HiberCell, Inc., priority 2021, published 2024) are described below.

SMILES strings stand for the structures.

The first experiment deals with GCN2 (Homo sapiens (Human), UniProt Q9P2K8). As to the kind of experiment: TR-FRET biochemical assay for inhibition of GCN2.
Chain of GCN2 (Q9P2K8 whole entry): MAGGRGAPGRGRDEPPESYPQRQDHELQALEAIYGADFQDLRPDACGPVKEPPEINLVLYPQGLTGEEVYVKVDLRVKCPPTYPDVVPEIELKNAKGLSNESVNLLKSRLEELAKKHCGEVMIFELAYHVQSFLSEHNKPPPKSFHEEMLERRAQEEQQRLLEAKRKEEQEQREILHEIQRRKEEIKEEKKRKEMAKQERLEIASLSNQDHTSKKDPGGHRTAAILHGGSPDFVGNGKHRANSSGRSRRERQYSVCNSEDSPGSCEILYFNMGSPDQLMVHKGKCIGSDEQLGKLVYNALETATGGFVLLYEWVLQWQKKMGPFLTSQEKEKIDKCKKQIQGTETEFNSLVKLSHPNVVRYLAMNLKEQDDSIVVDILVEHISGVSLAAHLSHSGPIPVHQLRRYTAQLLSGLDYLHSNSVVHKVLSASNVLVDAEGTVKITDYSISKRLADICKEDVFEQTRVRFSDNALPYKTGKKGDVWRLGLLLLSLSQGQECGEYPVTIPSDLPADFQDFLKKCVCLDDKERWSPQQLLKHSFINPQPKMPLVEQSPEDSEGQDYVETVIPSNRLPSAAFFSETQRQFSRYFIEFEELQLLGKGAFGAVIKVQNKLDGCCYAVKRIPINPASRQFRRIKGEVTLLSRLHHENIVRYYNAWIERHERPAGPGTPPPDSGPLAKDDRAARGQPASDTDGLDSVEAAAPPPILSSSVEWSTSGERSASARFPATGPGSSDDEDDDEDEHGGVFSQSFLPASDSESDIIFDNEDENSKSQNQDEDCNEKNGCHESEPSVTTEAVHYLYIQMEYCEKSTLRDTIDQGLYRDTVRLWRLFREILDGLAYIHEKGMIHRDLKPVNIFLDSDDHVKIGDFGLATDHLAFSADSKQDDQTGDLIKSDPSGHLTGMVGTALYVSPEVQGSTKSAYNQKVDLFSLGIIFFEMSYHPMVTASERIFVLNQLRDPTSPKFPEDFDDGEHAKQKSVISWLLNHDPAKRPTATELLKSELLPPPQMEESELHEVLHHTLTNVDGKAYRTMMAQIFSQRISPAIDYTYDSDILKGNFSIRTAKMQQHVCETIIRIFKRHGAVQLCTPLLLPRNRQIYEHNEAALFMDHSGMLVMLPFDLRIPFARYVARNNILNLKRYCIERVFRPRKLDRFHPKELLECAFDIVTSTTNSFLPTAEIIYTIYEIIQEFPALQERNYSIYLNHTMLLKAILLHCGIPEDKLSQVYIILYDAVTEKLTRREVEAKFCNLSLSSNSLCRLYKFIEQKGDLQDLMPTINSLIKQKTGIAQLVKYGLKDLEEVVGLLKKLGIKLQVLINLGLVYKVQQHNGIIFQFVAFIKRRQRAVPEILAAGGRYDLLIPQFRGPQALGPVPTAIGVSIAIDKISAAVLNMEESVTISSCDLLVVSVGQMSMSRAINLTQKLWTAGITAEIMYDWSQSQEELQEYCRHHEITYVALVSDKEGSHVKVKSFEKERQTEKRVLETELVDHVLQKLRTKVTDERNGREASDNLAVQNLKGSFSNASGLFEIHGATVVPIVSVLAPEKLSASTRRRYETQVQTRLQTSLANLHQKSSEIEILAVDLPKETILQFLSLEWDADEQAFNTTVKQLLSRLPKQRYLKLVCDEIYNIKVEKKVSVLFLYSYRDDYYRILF
Conditions: not given
Molecule `COc1ncc(Cl)cc1S(=O)(=O)Nc1ccc(F)c(-c2cn3cnc(C(=O)NCCCN(C)C)c3cn2)c1F` [Compound 172, 6-[3-(5-chloro-2-methoxypyridine-3-sulfonamido)-2,6-difluorophenyl]-N-[3-(dimethylamino)propyl]imidazo[1,5-a]pyrazine-1-carboxamide] showed an IC50 of 50 to 500 nM.
Still for that read-out and setting: the figure for `COc1ncc(Cl)cc1S(=O)(=O)Nc1ccc(F)c(-c2cn3cnc(C(=O)N[C@@H]4CCN(C)C4)c3cn2)c1F` [Compound 173-1, (R)-6-(3-((5-chloro-2-methoxypyridine)-3-sulfonamido)-2,6-difluorophenyl)-N-(1-methylpyrrolidin-3-yl)imidazo[1,5-a]pyrazine-1-carboxamide] is 50 to 500 nM; for `CNC(=O)c1ncn2cc(-c3c(F)ccc(NS(=O)(=O)c4cc(Cl)cnc4OCC(C)C)c3F)ncc12` [Compound 176, 6-[3-[5-chloro-2-(2-methylpropoxy)pyridine-3-sulfonamido]-2,6-difluorophenyl]-N-methylimidazo[1,5-a]pyrazine-1-carboxamide] it is 500 to 1000 nM; for `COc1ncc(F)cc1S(=O)(=O)Nc1ccc(F)c(-c2cn3cnc(-c4[nH]cnc4C4CC4)c3cn2)c1F` [Compound 177, N-[3-[1-(5-cyclopropyl-3H-imidazol-4-yl)imidazo[1,5-a]pyrazin-6-yl]-2,4-difluorophenyl]-5-fluoro-2-methoxypyridine-3-sulfonamide] it is 50 to 500 nM.
On the same count and under the same terms, the figure for `COc1ncc(Cl)cc1S(=O)(=O)Nc1ccc(F)c(-c2cn3cnc(C(=O)NCCN(C)C)c3cn2)c1F` [Compound 179, 6-[3-(5-chloro-2-methoxypyridine-3-sulfonamido)-2,6-difluorophenyl]-N-[2-(dimethylamino)ethyl]imidazo[1,5-a]pyrazine-1-carboxamide] is 50 to 500 nM.
Still for that read-out and setting: the figure for `COc1ncc(Cl)cc1S(=O)(=O)Nc1ccc(F)c(-c2cn3cnc(C(=O)NCCN4CCCC4=O)c3cn2)c1F` [Compound 180, 6-[3-(5-chloro-2-methoxypyridine-3-sulfonamido)-2,6-difluorophenyl]-N-[2-(2-oxopyrrolidin-1-yl)ethyl]imidazo[1,5-a]pyrazine-1-carboxamide] is 50 to 500 nM.
In the case of `CNC(=O)c1ncn2cc(-c3c(F)ccc(NS(=O)(=O)c4cc(Cl)cnc4OCC(F)(F)F)c3F)ncc12` [Compound 182, 6-[3-[5-chloro-2-(2,2,2-trifluoroethoxy)pyridine-3-sulfonamido]-2,6-difluorophenyl]-N-methylimidazo[1,5-a]pyrazine-1-carboxamide], the IC50 fell in the range of 500 to 1000 nM.
Still for that read-out and setting: the figure for `CNC(=O)c1ncn2c(F)c(-c3c(F)ccc(NS(=O)(=O)c4cc(F)cnc4C)c3F)ncc12` [Compound 184, 6-[2,6-difluoro-3-(5-fluoro-2-methylpyridine-3-sulfonamido)phenyl]-5-fluoro-N-methylimidazo[1,5-a]pyrazine-1-carboxamide] is 50 to 500 nM.

Staying with this experiment, now noted: GCN2 2 nM, 100 nM GFP-eIF2a, 150 μM ATP, TR-FRET.
`COc1ncc(Cl)cc1S(=O)(=O)Nc1ccc(F)c(-c2cn3cnc(C(=O)N[C@H]4CCN(C)C4)c3cn2)c1F` [Compound 173-2, (S)-6-(3-((5-chloro-2-methoxypyridine)-3-sulfonamido)-2,6-difluorophenyl)-N-(1-methylpyrrolidin-3-yl)imidazo[1,5-a]pyrazine-1-carboxamide] registered an IC50 of under 50 nM.
The same measure, in the same setting: the figure for `COc1ncc(Cl)cc1S(=O)(=O)Nc1ccc(F)c(-c2cn3cnc(C(=O)Nc4cnoc4)c3cn2)c1F` [Compound 174, 6-[3-(5-chloro-2-methoxypyridine-3-sulfonamido)-2,6-difluorophenyl]-N-(1,2-oxazol-4-yl)imidazo[1,5-a]pyrazine-1-carboxamide] is under 50 nM; for `COc1ncc(Cl)cc1S(=O)(=O)Nc1ccc(F)c(-c2cn3cnc(C(=O)NCCN4CCOCC4)c3cn2)c1F` [Compound 175, 6-[3-(5-chloro-2-methoxypyridine-3-sulfonamido)-2,6-difluorophenyl]-N-[2-(morpholin-4-yl)ethyl]imidazo[1,5-a]pyrazine-1-carboxamide] it is under 50 nM.
Same read-out and setting: the figure for `COc1ncc(F)cc1S(=O)(=O)Nc1ccc(F)c(-c2cn3cnc(-c4nc(Cc5ccccc5)c[nH]4)c3cn2)c1F` [Compound 178, N-[3-[1-(4-benzyl-1H-imidazol-2-yl)imidazo[1,5-a]pyrazin-6-yl]-2,4-difluorophenyl]-5-fluoro-2-methoxypyridine-3-sulfonamide] is under 50 nM; for `COc1ncc(Cl)cc1S(=O)(=O)Nc1ccc(F)c(-c2cn3cnc(C(=O)Nc4ccc(CN(C)C)cc4)c3cn2)c1F` [Compound 181, 6-[3-(5-chloro-2-methoxypyridine-3-sulfonamido)-2,6-difluorophenyl]-N-[4-[(dimethylamino)methyl]phenyl]imidazo[1,5-a]pyrazine-1-carboxamide] it is under 50 nM; for `CNC(=O)c1ncn2cc(-c3c(F)ccc(NS(=O)(=O)c4cc(Cl)cnc4OCc4ccccc4)c3F)ncc12` [Compound 183, 6-[3-[2-(benzyloxy)-5-chloropyridine-3-sulfonamido]-2,6-difluorophenyl]-N-methylimidazo[1,5-a]pyrazine-1-carboxamide] it is over 1000 nM.
For `COc1ncc(F)cc1S(=O)(=O)Nc1ccc(F)c(-c2ccc3c(-c4nc5ccc(N6CCN(C)CC6)cc5[nH]4)ncn3c2)c1F` [Compound 185, N-(2,4-difluoro-3-[1-[5-(4-methylpiperazin-1-yl)-3H-1,3-benzodiazol-2-yl]imidazo[1,5-a]pyridin-6-yl]phenyl)-5-fluoro-2-methoxypyridine-3-sulfonamide], the IC50 was under 50 nM.
Molecule `CNC(=O)c1ncn2c(F)c(-c3c(F)ccc(NS(=O)(=O)c4cc(Cl)cnc4C)c3F)ncc12` [Compound 186, 6-[3-(5-chloro-2-methylpyridine-3-sulfonamido)-2,6-difluorophenyl]-5-fluoro-N-methylimidazo[1,5-a]pyrazine-1-carboxamide] came in with an IC50 of under 50 nM.
